Reference: ChEMBL document CHEMBL1759979, “Impact of aryloxy-linked quinazolines: a novel series of selective VEGFR-2 receptor tyrosine kinase inhibitors” (Bioorg Med Chem Lett, 2011)

What was measured:
MCF7 [1] = experiment: Antiproliferative activity against human MCF7 cells after 72 hrs by MTS assay; type: functional; set-up: concentration or dose not given beside the values
HT-29 [2] = experiment: Antiproliferative activity against human HT-29 cells after 72 hrs by MTS assay; type: functional; set-up: concentration or dose not given beside the values
[3] = Antiproliferative activity against human EAhy926 cells after 72 hrs by MTS assay; type: functional, EA.hy 926; set-up: concentration or dose not given beside the values
PC-3 [4] = experiment: Antiproliferative activity against human PC3 cells after 72 hrs by MTS assay; type: functional; set-up: concentration or dose not given beside the values
[5] = target: T1, Vascular endothelial growth factor receptor 2 (Homo sapiens, UniProt P35968); experiment: Inhibition of recombinant human VEGFR-2-mediated poly(Glu4Tyr) phosphorylation after 1 hr
[6] = target: Epidermal growth factor receptor (Homo sapiens, UniProt P00533); experiment: Inhibition of human EGFR-mediated poly(Glu4Tyr) phosphorylation after 1 hr
HT-29 [7] = experiment: Antiproliferative activity against human HT-29 cells at 10 uM after 72 hrs by MTS assay; type: functional, cell-based; conditions: HT-29, 72 h
PC-3 [8] = experiment: Antiproliferative activity against human PC3 cells at 10 uM after 72 hrs by MTS assay; type: functional, cell-based; conditions: PC-3, 72 h
MCF7 [9] = experiment: Antiproliferative activity against human MCF7 cells at 10 uM after 72 hrs by MTS assay; conditions: MCF7, 72 h
[10] = Antiproliferative activity against human EAhy926 cells at 10 uM after 72 hrs by MTS assay; type: functional, cell-based; conditions: EA.hy 926, 72 h
[11] = target: T1, Vascular endothelial growth factor receptor 2; experiment: Inhibition of KDR

Epidermal growth factor receptor, sequence (P00533 whole entry): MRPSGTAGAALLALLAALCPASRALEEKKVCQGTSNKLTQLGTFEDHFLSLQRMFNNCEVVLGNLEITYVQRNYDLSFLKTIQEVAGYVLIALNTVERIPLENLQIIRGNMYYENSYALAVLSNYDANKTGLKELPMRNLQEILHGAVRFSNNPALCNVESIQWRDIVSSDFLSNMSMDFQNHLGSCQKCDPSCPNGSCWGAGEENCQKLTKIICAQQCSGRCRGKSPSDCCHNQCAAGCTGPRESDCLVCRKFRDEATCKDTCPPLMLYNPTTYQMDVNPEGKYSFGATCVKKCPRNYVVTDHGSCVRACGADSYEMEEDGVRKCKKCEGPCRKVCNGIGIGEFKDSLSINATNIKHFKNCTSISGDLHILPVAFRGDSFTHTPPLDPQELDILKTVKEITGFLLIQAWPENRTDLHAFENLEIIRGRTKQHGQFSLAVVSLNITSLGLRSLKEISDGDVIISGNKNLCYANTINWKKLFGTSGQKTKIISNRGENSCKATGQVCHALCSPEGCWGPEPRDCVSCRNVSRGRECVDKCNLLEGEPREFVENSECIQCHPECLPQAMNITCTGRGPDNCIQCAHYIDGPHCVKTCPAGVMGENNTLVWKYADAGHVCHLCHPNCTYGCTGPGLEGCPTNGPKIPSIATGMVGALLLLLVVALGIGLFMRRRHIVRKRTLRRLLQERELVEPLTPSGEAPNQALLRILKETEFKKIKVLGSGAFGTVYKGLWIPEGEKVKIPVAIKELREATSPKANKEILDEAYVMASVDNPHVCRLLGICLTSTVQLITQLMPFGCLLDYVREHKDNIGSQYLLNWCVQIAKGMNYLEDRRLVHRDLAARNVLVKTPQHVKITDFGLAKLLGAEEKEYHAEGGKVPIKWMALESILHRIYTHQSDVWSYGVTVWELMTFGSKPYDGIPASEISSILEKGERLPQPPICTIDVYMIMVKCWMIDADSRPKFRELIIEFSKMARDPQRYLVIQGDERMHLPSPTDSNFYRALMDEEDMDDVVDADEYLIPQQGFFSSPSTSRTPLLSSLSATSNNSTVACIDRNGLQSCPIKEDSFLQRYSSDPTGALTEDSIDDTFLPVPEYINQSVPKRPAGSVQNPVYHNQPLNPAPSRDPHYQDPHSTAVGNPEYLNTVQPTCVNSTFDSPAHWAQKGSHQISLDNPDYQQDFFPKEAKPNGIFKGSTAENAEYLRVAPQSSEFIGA
T1 sequence (P35968 whole entry): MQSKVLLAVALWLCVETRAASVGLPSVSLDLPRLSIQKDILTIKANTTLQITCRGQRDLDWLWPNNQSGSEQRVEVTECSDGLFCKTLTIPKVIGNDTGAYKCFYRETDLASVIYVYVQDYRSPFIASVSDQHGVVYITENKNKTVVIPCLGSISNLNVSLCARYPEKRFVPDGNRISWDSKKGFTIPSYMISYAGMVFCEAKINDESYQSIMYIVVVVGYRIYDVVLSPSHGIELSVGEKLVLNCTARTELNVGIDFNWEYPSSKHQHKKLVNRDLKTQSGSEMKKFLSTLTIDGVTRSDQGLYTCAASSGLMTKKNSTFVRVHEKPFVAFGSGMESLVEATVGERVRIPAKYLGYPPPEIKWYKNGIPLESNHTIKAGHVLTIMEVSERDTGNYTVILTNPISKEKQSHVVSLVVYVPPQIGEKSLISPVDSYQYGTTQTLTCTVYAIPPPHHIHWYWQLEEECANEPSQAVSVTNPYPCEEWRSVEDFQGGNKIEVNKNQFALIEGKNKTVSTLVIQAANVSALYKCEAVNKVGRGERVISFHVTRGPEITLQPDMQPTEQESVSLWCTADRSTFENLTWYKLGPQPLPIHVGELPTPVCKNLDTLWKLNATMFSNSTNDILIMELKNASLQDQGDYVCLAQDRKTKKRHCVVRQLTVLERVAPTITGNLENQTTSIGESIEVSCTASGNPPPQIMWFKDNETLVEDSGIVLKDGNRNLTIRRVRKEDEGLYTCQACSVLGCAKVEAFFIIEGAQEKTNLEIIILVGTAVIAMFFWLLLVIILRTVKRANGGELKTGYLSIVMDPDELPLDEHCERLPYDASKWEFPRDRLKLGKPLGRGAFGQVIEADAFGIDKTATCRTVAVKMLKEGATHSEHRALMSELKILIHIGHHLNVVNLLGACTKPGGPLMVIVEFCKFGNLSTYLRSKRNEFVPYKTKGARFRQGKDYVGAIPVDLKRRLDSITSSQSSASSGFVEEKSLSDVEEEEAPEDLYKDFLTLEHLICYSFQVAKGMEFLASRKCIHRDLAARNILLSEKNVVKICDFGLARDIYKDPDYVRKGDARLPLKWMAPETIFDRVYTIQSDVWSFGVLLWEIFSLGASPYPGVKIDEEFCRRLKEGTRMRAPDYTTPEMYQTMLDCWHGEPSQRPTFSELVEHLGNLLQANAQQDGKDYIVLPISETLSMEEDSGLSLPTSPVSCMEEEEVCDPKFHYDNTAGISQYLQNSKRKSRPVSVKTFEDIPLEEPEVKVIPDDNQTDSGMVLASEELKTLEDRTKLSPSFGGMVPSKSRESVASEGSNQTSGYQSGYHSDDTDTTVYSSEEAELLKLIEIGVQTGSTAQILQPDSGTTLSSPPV

IC50 [5]	IC50 [6]	Structure (SMILES)	Activity (MCF7 [1])	Activity (HT-29 [2])	Activity [3]	Activity (PC-3 [4])	also measured
–	–	COc1cc2ncnc(N(C)c3cccc(NC(=O)Nc4ccccc4)c3)c2cc1OC	0%	0%	0%	0%	–
–	–	COc1ccc(NC(=O)Nc2cccc(N(C)c3ncnc4cc(OC)c(OC)cc34)c2)cc1	0%	0%	0%	0%	–
0.06 µM	> 10 µM	COc1cc2ncnc(Oc3ccc(NC(=O)Nc4ccccc4)cc3)c2cc1OC	12%	12%	15%	23%	–
–	> 10 µM	COc1cc2ncnc(Oc3cccc(NC(=O)Nc4ccccc4)c3)c2cc1OC	–	–	–	–	–
–	> 10 µM	COc1ccc(NC(=O)Nc2cccc(Oc3ncnc4cc(OC)c(OC)cc34)c2)cc1	–	–	–	–	–
1.65 µM	5.7 µM	COc1cc2ncnc(Nc3ccc(Br)cc3F)c2cc1OC	31%	0%	0%	1%	–
> 10 µM	> 10 µM	COc1cc2ncnc(N(C)c3ccc(F)c(Cl)c3)c2cc1OC	0%	–	46%	22%	IC50 (HT-29 [7]): 5.2 µM
> 10 µM	> 10 µM	COc1cc2ncnc(N(C)c3ccc(Br)cc3F)c2cc1OC	0%	14%	0%	15%	–
9.5 µM	> 10 µM	COc1cc2ncnc(Oc3ccc(F)c(Cl)c3)c2cc1OC	0%	–	–	5%	IC50 (HT-29 [7]): 4.07 µM
–	5.9 µM	COc1cc2ncnc(Oc3ccc(Br)c(F)c3)c2cc1OC	–	–	–	–	–
> 10 µM	> 10 µM	COc1cc2ncnc(Nc3ccc(NC(C)=O)cc3)c2cc1OC	12%	0%	0%	2%	–
–	–	COc1cc2ncnc(Oc3ccc(NC(C)=O)cc3)c2cc1OC	5%	0%	3%	0%	–
5.8 µM	–	COC(=O)Nc1ccc(Nc2ncnc3cc(OC)c(OC)cc23)cc1	27%	10%	0%	2%	–
–	> 10 µM	COC(=O)Nc1ccc(Oc2ncnc3cc(OC)c(OC)cc23)cc1	–	–	–	–	–
5.6 µM	> 10 µM	CCOC(=O)Nc1ccc(Nc2ncnc3cc(OC)c(OC)cc23)cc1	6%	16%	0%	12%	–
–	> 10 µM	CCOC(=O)Nc1ccc(Oc2ncnc3cc(OC)c(OC)cc23)cc1	–	–	–	–	–
–	> 10 µM	COc1cc2ncnc(Nc3ccc(NC(=O)Nc4ccccc4)cc3)c2cc1OC	–	–	–	–	–

IC50 [5]	IC50 [6]	Structure (SMILES)	Activity (MCF7 [1])	Activity (HT-29 [2])	Activity [3]	Activity (PC-3 [4])	also measured
–	> 10 µM	COc1ccc(NC(=O)Nc2ccc(Nc3ncnc4cc(OC)c(OC)cc34)cc2)cc1	–	–	–	–	–
–	> 10 µM	CCCCNC(=O)Nc1ccc(Oc2ncnc3cc(OC)c(OC)cc23)cc1	–	–	–	–	–
–	> 10 µM	COc1cc2ncnc(Oc3ccc(NC(=O)Nc4ccc(Br)cc4)cc3)c2cc1OC	–	–	–	–	–
–	> 10 µM	COc1cc2ncnc(Oc3ccc(NC(=O)Nc4ccc(F)cc4F)cc3)c2cc1OC	–	–	–	–	–
–	> 10 µM	COc1cc2ncnc(Oc3ccc(NC(=O)Nc4ccc(F)c(Cl)c4)cc3)c2cc1OC	–	–	–	–	–
–	> 10 µM	COc1cc2ncnc(Oc3ccc(NC(=O)Nc4ccc(C(F)(F)F)cc4)cc3)c2cc1OC	–	–	–	–	–
–	> 10 µM	COc1cc2ncnc(Oc3ccc(NC(=O)Nc4ccc(C)cc4)cc3)c2cc1OC	23%	17%	42%	23%	–
–	> 10 µM	COc1cc2ncnc(Oc3ccc(NC(=O)Nc4ccc5ccccc5c4)cc3)c2cc1OC	–	–	–	–	–
–	> 10 µM	COc1cc2ncnc(Oc3ccc(NC(=O)Nc4cccc5ccccc45)cc3)c2cc1OC	8%	17%	9%	8%	–
4.3 µM	> 10 µM	COc1cc2ncnc(Nc3ccc(NC(=O)Nc4ccc(F)c(Cl)c4)cc3)c2cc1OC	–	–	–	–	IC50 (PC-3 [8]): 9.4 µM; IC50 (HT-29 [7]): 6.2 µM; IC50 (MCF7 [9]): 7.7 µM; IC50 [10]: 5.3 µM
> 10 µM	> 10 µM	COc1cc2ncnc(N(C)c3ccc(NC(=O)Nc4ccc(F)c(Cl)c4)cc3)c2cc1OC	35%	–	29%	–	–
0.07 µM	> 10 µM	COc1ccc(NC(=O)Nc2ccc(Oc3ncnc4cc(OC)c(OC)cc34)cc2)cc1	0%	9%	24%	12%	IC50 [11]: 0.07 µM
–	> 10 µM	COc1cc2ncnc(Oc3ccc(NC(=O)NC4CCCCC4)cc3)c2cc1OC	–	–	–	–	–
–	–	COc1cc2ncnc(Nc3cccc(Br)c3)c2cc1OC	–	–	–	40%	IC50 [10]: 7.1 µM
5.3 µM	–	COc1cc2ncnc(Nc3ccc(F)c(Cl)c3)c2cc1OC	–	–	–	–	IC50 (PC-3 [8]): 6.5 µM; IC50 (HT-29 [7]): 5.7 µM; IC50 (MCF7 [9]): 4.9 µM; IC50 [10]: 4.5 µM
–	7.6 µM	COc1cc2ncnc(Oc3cccc(Br)c3)c2cc1OC	0%	6%	0%	27%	–
–	–	COc1cc2/c(=N/c3ccc(Br)cc3F)nc[nH]c2cc1OCC1CCN(C)CC1 [VANDETANIB]	26%	–	–	33%	IC50 (HT-29 [7]): 4.2 µM; IC50 [10]: 5.1 µM
